What was measured:
Format in all cases: ADME, organism-based
[1] = test system: Rattus norvegicus; test: Biodistribution in Sprague-Dawley rat cortex (rest) at 37 MBq, iv measured 30 mins post injection; conditions: in vivo, 0.5 h
[2] = test system: Rattus norvegicus; test: Biodistribution in Sprague-Dawley rat cortex (front) at 37 MBq, iv measured 5 mins post injection; conditions: in vivo
[3] = Biodistribution in Sprague-Dawley rat hippocampus pretreated with unlabeled compound at 5 mg/kg, ip administered 30 mins before labeled compound treatment at 37 MBq, iv measured 15 mins post injection (reference value: 0.22 +/- 0.22 %ID/g); parameters: dose 5 mg/kg; conditions: read-out: Drug uptake
[4] = test system: Rattus norvegicus; test: Biodistribution in Sprague-Dawley rat cortex (rest) pretreated with unlabeled compound at 5 mg/kg, ip administered 30 mins before labeled compound treatment at 37 MBq, iv measured 15 mins post injection (0.36 +/- 0.02 %ID/g); parameters: dose 5 mg/kg; conditions: in vivo, 0.25 h
[5] = Biodistribution in Sprague-Dawley rat hippocampus pretreated with unlabeled compound at 10 mg/kg, ip administered 30 mins before labeled compound treatment at 37 MBq, iv measured 15 mins post injection (reference value: 0.22 +/- 0.22 %ID/g); parameters: dose 10 mg/kg; conditions: read-out: Drug uptake
[6] = Biodistribution in Sprague-Dawley rat hippocampus pretreated with unlabeled compound at 0.1 mg/kg, ip administered 30 mins before labeled compound treatment at 37 MBq, iv measured 15 mins post injection (reference value: 0.22 +/- 0.22 %ID/g); parameters: dose 0.1 mg/kg; conditions: read-out: Drug uptake
[7] = test system: Cerebellum; test: Biodistribution in Sprague-Dawley rat cerebellum at 37 MBq, iv measured 60 mins post injection; conditions: in vivo, 1 h
[8] = test system: Hippocampus; test: Biodistribution in Sprague-Dawley rat hippocampus at 37 MBq, iv measured 5 mins post injection; conditions: in vivo
[9] = test system: Blood; test: Biodistribution in Sprague-Dawley rat blood at 37 MBq, iv measured 60 mins post injection; conditions: in vivo, 1 h
[10] = test system: Blood; test: Biodistribution in Sprague-Dawley rat blood pretreated with unlabeled compound at 0.1 mg/kg, ip administered 30 mins before labeled compound treatment at 37 MBq, iv measured 15 mins post injection (0.11 +/- 0.01 %ID/g); parameters: dose 0.1 mg/kg; conditions: in vivo, 0.25 h
[11] = test system: Brain; test: Biodistribution in Sprague-Dawley rat rest of brain at 37 MBq, iv measured 60 mins post injection; conditions: in vivo, 1 h
[12] = test system: Rattus norvegicus; test: Biodistribution in Sprague-Dawley rat cortex (front) pretreated with unlabeled compound at 5 mg/kg, ip administered 30 mins before labeled compound treatment at 37 MBq, iv measured 15 mins post infection (reference value: 0.42 +/- 0.04%ID/g); parameters: dose 5 mg/kg; conditions: in vivo, 0.25 h
[13] = Biodistribution in Sprague-Dawley rat blood pretreated with unlabeled compound at 10 mg/kg, ip administered 30 mins before labeled compound treatment at 37 MBq, iv measured 15 mins post injection (0.11 +/- 0.01 %ID/g); parameters: dose 10 mg/kg; conditions: read-out: Drug uptake
[14] = test system: Hippocampus; test: Biodistribution in Sprague-Dawley rat hippocampus at 37 MBq, iv measured 60 mins post injection; conditions: in vivo, 1 h
[15] = test system: Cerebellum; test: Biodistribution in Sprague-Dawley rat cerebellum at 37 MBq, iv measured 5 mins post injection; conditions: in vivo
[16] = test system: Blood; test: Biodistribution in Sprague-Dawley rat blood at 37 MBq, iv measured 5 mins post injection; conditions: in vivo
[17] = test system: Blood; test: Biodistribution in Sprague-Dawley rat blood at 37 MBq, iv measured 30 mins post injection; conditions: in vivo, 0.5 h
[18] = test system: Cerebellum; test: Biodistribution in Sprague-Dawley rat cerebellum at 37 MBq, iv measured 30 mins post injection; conditions: in vivo, 0.5 h
[19] = test system: Striatum; test: Biodistribution in Sprague-Dawley rat striatum at 37 MBq, iv measured 30 mins post injection; conditions: in vivo, 0.5 h
[20] = test system: Rattus norvegicus; test: Biodistribution in Sprague-Dawley rat cortex (front) pretreated with unlabeled compound at 10 mg/kg, ip administered 30 mins before labeled compound treatment at 37 MBq, iv measured 15 mins post infection (reference value: 0.42 +/- 0.04%ID/g); parameters: dose 10 mg/kg; conditions: in vivo, 0.25 h
[21] = test system: Plasma; test: Drug metabolism in Sprague-Dawley rat plasma at 37 MBq, iv measured after 5 mins; conditions: in vivo
[22] = test system: Brain; test: Biodistribution in Sprague-Dawley rat rest of brain pretreated with unlabeled compound at 5 mg/kg, ip administered 30 mins before labeled compound treatment at 37 MBq, iv measured 15 mins post injection (0.20 +/- 0.01 %ID/g); parameters: dose 5 mg/kg, route intravenous; conditions: in vivo, 0.25 h
[23] = test system: Blood; test: Biodistribution in Sprague-Dawley rat blood pretreated with unlabeled compound at 5 mg/kg, ip administered 30 mins before labeled compound treatment at 37 MBq, iv measured 15 mins post injection (0.11 +/- 0.01 %ID/g); parameters: dose 5 mg/kg; conditions: in vivo, 0.25 h
[24] = test system: Brain; test: Biodistribution in Sprague-Dawley rat rest of brain pretreated with unlabeled compound at 10 mg/kg, ip administered 30 mins before labeled compound treatment at 37 MBq, iv measured 15 mins post injection (0.20 +/- 0.01 %ID/g); parameters: dose 10 mg/kg; conditions: in vivo, 0.25 h
[25] = test system: Brain; test: Biodistribution in Sprague-Dawley rat rest of brain at 37 MBq, iv measured 15 mins post injection; conditions: in vivo, 0.25 h
[26] = test system: Striatum; test: Biodistribution in Sprague-Dawley rat striatum at 37 MBq, iv measured 5 mins post injection; conditions: in vivo
[27] = Biodistribution in Sprague-Dawley rat cerebellum pretreated with unlabeled compound at 10 mg/kg, ip administered 30 mins before labeled compound treatment at 37 MBq, iv measured 15 mins post injection (reference value: 0.26 %ID/g); parameters: dose 10 mg/kg; conditions: read-out: Drug uptake
[28] = Metabolic stability of the compound in Sprague-Dawley rat brain assessed as compound remaining at 37 MBq, iv measured after 15 mins; conditions: read-out: Stability
[29] = Metabolic stability of the compound in Sprague-Dawley rat plasma assessed as compound remaining at 37 MBq, iv measured after 15 mins; conditions: read-out: Stability
[30] = test system: Hippocampus; test: Biodistribution in Sprague-Dawley rat hippocampus at 37 MBq, iv measured 30 mins post injection; conditions: in vivo, 0.5 h
[31] = test system: Striatum; test: Biodistribution in Sprague-Dawley rat striatum pretreated with unlabeled compound at 10 mg/kg, ip administered 30 mins before labeled compound treatment at 37 MBq, iv measured 15 mins post injection (reference value: 0.13 +/- 0.22 %ID/g); parameters: dose 10 mg/kg, route intravenous; conditions: in vivo, 0.25 h
[32] = Biodistribution in Sprague-Dawley rat cortex (rest) pretreated with unlabeled compound at 0.1 mg/kg, ip administered 30 mins before labeled compound treatment at 37 MBq, iv measured 15 mins post injection (0.36 +/- 0.02 %ID/g); parameters: dose 0.1 mg/kg; conditions: read-out: Drug uptake
[33] = test system: Hippocampus; test: Biodistribution in Sprague-Dawley rat hippocampus at 37 MBq, iv measured 15 mins post injection; conditions: in vivo, 0.25 h
[34] = Biodistribution in Sprague-Dawley rat striatum pretreated with unlabeled compound at 5 mg/kg, ip administered 30 mins before labeled compound treatment at 37 MBq, iv measured 15 mins post injection (reference value: 0.13 +/- 0.22 %ID/g); parameters: dose 5 mg/kg, route intravenous; conditions: read-out: Drug uptake
[35] = test system: Striatum; test: Biodistribution in Sprague-Dawley rat striatum at 37 MBq, iv measured 60 mins post injection; conditions: in vivo, 1 h
[36] = Biodistribution in Sprague-Dawley rat cerebellum pretreated with unlabeled compound at 5 mg/kg, ip administered 30 mins before labeled compound treatment at 37 MBq, iv measured 15 mins post injection (reference value: 0.26 %ID/g); parameters: dose 5 mg/kg; conditions: read-out: Drug uptake
[37] = Biodistribution in Sprague-Dawley rat rest of brain pretreated with unlabeled compound at 0.1 mg/kg, ip administered 30 mins before labeled compound treatment at 37 MBq, iv measured 15 mins post injection (0.20 +/- 0.01 %ID/g); parameters: dose 0.1 mg/kg; conditions: read-out: Drug uptake

A Drug uptake [1] of 0.37 % ID/g, a Drug uptake [2] of 0.47 % ID/g and a tissue uptake at 0.25 h [3] of 0.11 %ID/g were found for `[11CH3]Oc1ncccc1-c1cccc2c(N)c3c(nc12)CN(C1CCC1)C3=O` in this work. For the same compound, the Drug uptake [4] was 0.14 % ID/g, the tissue uptake at 0.25 h [5] was 0.08 %ID/g and the tissue uptake at 0.25 h [6] was 0.17 %ID/g. For the same compound, the Drug uptake [7] was 0.13 % ID/g, the Drug uptake [8] was 0.2 % ID/g and the Drug uptake [9] was 0.08 % ID/g. It also gave a Drug uptake [10] of 0.11 % ID/g, a Drug uptake [11] of 0.11 % ID/g and a Drug uptake [12] of 0.16 % ID/g. It also gave a tissue uptake at 0.25 h [13] of 0.12 %ID/g, a Drug uptake [14] of 0.09 % ID/g and a Drug uptake [15] of 0.36 % ID/g. It also gave a Drug uptake [16] of 0.14 % ID/g, a Drug uptake [17] of 0.11 % ID/g and a Drug uptake [18] of 0.26 % ID/g. For the same compound, the Drug uptake [19] was 0.15 % ID/g, the Drug uptake [20] was 0.13 % ID/g and the Drug metabolism [21] was “Active”. The Drug uptake [22] was 0.09 % ID/g, the Drug uptake [23] was 0.12 % ID/g and the Drug uptake [24] was 0.09 % ID/g. It also gave a Drug uptake [25] of 0.27 % ID/g, a Drug uptake [26] of 0.26 % ID/g and a tissue uptake at 0.25 h [27] of 0.09 %ID/g. The remaining at 0.25 h [28] was > 99%, the remaining at 0.25 h [29] was 71% and the Drug uptake [30] was 0.24 % ID/g. It also gave a Drug uptake [31] of 0.08 % ID/g, a tissue uptake at 0.25 h [32] of 0.27 %ID/g and a Drug uptake [33] of 0.29 % ID/g. It also gave a tissue uptake at 0.25 h [34] of 0.1 %ID/g, a Drug uptake [35] of 0.06 % ID/g and a tissue uptake at 0.25 h [36] of 0.12 %ID/g. For the same compound, the tissue uptake at 0.25 h [37] was 0.16 %ID/g.

Source: ChEMBL document CHEMBL2057083, “Development of new carbon-11 labelled radiotracers for imaging GABAA- and GABAB-benzodiazepine receptors” (Bioorg Med Chem, 2012)
